Tests used:
M. oryzae BOA102 [1] = settings: for mycelium color / phenotype of the fungal colony: BOA102 exposed to single commercial compound, dual plate; for mycelium growth measured as colony diameter: Student T-test p<0.05
M. oryzae mycelium = settings: compound added to fungal growth media; untreated black; cited from earlier work
M. oryzae BOA102 [2] = settings: grown in the presence of Tricyclazole

SMILES | mycelium color / phenotype of the fungal colony (M. oryzae BOA102 [1]) | mycelium growth measured as colony diameter (M. oryzae BOA102 [1]) | pigmentation of M. oryzae mycelium (M. oryzae mycelium) | color of the mycelium (DHN melanin inhibition phenotype) (M. oryzae BOA102 [2])
CC(=O)OCCC(C)C [1-butanol-3-methyl-acetate] | do not induce appreciable phenotype/color variations | significant reduction |  | 
CC(C)CCO [1-butanol-3-methyl] | shift from black to white | significant reduction |  | 
CC(C)CO [1-propanol-2-methyl] | do not induce appreciable phenotype/color variations | significant reduction |  | 
Cc1ccc(C(=O)NC[C@@H](NC(=O)OCC(F)(F)F)C(C)C)cc1 [Tolprocab] |  |  | white | 
Cc1cccc2sc3nncn3c12 [Tricyclazole] |  |  | orange | orange color
CCO [ethanol] | do not induce appreciable phenotype/color variations | No effect |  | 
